According to patent publication US11897901B1, “6-amino-8,9-di(4-methoxyphenyl)-2-oxo-3,9-dihydro-2H-[1,3]thiazolo[5′,4′:5,6]pyrano[2,3-b]pyridine-7-carbonitrile as anticancer compound” (KING FAISAL UNIVERSITY, priority 2023, dated 2024):

Tests used:
[1] = tested on: human prostate cancer cells (PC3); assay: Assessment of cytotoxicity by SRB assay, PC3 cells; assay type: cell-based; conditions: 0.01 μM to 100 μM, 72 h
Method: (§1) The human prostate cancer cells (PC3) and human osteosarcoma cells (MG-63) were obtained from Nawah Scientific Inc. (Mokatam, Cairo, Egypt) and cultured in DMEM (Dulbecco's modified eagle's medium), Gibco, USA, supplemented with fetal bovine serum (FBS) at a concentration of 10% and 100 U/mL of penicillin and streptomycin (PS). The Cells were incubated at 37° C. in a humidified environment that contained 5% CO2.
(§2) Cells were seeded in 96-well plates as aliquots of 100 μL cell suspension and incubated in a complete media for 24 h. Afterward, cells were treated with 6-amino-8,9-di(4-methoxyphenyl)-2-oxo-3,9-dihydro-2H-[1,3]thiazolo[5′,4′:5,6]pyrano[2,3-b]pyridine-7-carbonitrile (2) at diverse concentrations ranging from 0.01 μM to 100 μM for 72 h. Then, cells were fixed at 4° C. for one hour with 150 μL of 10% trichloroacetic acid (TCA). After washing the cells five times with distilled water, 70 μL of sulforhodamine (SRB) solution (0.4% w/v) was added and incubated for 10 min at room temperature in a dark place. […] Then, 150 μL of Tris pH 10.5 (10 mM) was added, and the absorbance was measured at 540 nm using a BMG LABTECH®-FLUOstar Omega microplate reader (Ortenberg, Germany). Half maximal inhibitory concentration (IC50) values were calculated for each experiment using GraphPad Prism 6 software. […]
(§3) The inhibition was calculated using the following equation: Inhibition %=100−Average Viability

[2] = tested on: human osteosarcoma cells (MG-63); assay: Assessment of cytotoxicity by SRB assay, MG-63 cells; assay type: cell-based; conditions: 0.01 μM to 100 μM, 72 h
Method: as §1, §2, §3

COc1ccc(-c2c(C#N)c(N)nc3c2C(c2ccc(OC)cc2)c2sc(=O)[nH]c2O3)cc1 (stereo not drawn) [Compound 2, 6-amino-8,9-di(4-methoxyphenyl)-2-oxo-3,9-dihydro-2H-[1,3]thiazolo[5′,4′:5,6]pyrano[2,3-b]pyridine-7-carbonitrile]
antiproliferative activities against cancer cells (PC3) [1]: excellent antiproliferative activities | antiproliferative activities against osteosarcoma (MG-63) cells [2]: excellent antiproliferative activities | melting point: 234 to 236 °C
